According to patent US20240208968A1, “ALPHA V BETA 6 AND ALPHA V BETA 1 INTEGRIN INHIBITORS AND USES THEREOF” (DiCE Molecules SV, Inc., priority 2021, published 2024):
pIC50: −log10 of the molar value. Structures can show the parent of a compound that is named as a salt.

Experiments:
αvβ6 = αvβ6 (Homo sapiens, UniProt P06756+P18564); experiment: Solid Phase Integrin αvβ6 Assay; assay type: binding
Outline: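 Inhibition of αvβ6 binding to immobilized recombinant TGFb1-LAP (1 μg/mL coating), 1 h at room temperature with 1 mM MnCl2 in BSA/TBST buffer, integrin diluted to 0.2 μg/mL before addition. Streptavidin-HRP/TMB read-out; four-parameter logistic fitting gave IC50.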

αvβ1 = αvβ1 (Homo sapiens, UniProt P05556+P06756); experiment: Solid Phase Integrin αvβ1 Assay; assay type: binding
Sequence of αvβ1 (P06756 31-992 limits assumed): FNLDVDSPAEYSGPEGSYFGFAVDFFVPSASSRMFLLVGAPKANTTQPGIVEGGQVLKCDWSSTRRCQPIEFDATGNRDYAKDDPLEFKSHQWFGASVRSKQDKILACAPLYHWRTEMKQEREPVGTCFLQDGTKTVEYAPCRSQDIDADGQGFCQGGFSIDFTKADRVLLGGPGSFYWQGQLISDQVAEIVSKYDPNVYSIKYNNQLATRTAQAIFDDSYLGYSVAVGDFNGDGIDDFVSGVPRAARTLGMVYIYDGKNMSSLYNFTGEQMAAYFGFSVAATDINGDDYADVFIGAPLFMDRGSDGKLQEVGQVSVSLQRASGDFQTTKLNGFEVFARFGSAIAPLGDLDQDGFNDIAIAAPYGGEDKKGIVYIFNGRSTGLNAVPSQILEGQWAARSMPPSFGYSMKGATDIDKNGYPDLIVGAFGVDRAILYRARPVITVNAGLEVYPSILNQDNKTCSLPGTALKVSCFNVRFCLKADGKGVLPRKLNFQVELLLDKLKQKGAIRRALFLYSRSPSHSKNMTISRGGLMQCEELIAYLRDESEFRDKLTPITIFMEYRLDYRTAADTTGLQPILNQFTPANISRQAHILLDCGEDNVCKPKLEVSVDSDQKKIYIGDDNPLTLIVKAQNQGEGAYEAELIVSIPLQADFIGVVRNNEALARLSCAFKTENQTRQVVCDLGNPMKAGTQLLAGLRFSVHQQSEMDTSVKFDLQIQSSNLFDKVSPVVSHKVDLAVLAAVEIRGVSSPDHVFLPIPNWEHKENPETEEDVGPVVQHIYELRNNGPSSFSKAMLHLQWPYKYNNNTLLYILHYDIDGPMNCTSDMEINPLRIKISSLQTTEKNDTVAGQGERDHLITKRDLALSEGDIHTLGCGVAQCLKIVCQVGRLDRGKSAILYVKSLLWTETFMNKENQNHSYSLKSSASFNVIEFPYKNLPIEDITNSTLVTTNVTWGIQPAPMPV
Sequence of αvβ1 (P05556 21-728 limits assumed): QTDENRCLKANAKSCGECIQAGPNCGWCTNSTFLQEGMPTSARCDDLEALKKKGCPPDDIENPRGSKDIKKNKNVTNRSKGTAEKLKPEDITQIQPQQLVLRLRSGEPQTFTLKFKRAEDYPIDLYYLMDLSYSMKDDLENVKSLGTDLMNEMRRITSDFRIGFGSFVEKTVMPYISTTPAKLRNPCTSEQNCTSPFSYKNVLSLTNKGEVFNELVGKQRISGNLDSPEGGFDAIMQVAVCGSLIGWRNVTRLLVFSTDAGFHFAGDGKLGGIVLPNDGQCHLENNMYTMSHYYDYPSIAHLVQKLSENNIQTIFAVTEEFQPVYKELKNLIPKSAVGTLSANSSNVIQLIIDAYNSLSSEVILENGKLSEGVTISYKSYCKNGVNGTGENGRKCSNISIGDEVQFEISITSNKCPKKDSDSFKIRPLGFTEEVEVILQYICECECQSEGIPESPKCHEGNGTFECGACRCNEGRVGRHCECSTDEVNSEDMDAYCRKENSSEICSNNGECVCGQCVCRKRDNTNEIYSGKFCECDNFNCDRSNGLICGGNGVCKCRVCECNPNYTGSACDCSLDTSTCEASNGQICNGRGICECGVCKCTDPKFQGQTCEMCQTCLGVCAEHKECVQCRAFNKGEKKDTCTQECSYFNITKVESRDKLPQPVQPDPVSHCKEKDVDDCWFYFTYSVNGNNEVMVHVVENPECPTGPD
Outline: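 Compound competes for αvβ1 binding to immobilized TGFb1-LAP (1 µg/mL coat) in Mn2+ (1 mM MnCl2), 2% BSA binding buffer over 90 min at room temperature, integrin added at 0.2 µg/mL. Read-out: streptavidin-HRP/TMB; IC50 from Levenberg-Marquardt four-parameter fit.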

Sequence of αvβ6 (P06756 31-992 limits assumed): as the sequence (P06756 31-992 limits assumed) above
Sequence of αvβ6 (P18564 22-707 limits assumed): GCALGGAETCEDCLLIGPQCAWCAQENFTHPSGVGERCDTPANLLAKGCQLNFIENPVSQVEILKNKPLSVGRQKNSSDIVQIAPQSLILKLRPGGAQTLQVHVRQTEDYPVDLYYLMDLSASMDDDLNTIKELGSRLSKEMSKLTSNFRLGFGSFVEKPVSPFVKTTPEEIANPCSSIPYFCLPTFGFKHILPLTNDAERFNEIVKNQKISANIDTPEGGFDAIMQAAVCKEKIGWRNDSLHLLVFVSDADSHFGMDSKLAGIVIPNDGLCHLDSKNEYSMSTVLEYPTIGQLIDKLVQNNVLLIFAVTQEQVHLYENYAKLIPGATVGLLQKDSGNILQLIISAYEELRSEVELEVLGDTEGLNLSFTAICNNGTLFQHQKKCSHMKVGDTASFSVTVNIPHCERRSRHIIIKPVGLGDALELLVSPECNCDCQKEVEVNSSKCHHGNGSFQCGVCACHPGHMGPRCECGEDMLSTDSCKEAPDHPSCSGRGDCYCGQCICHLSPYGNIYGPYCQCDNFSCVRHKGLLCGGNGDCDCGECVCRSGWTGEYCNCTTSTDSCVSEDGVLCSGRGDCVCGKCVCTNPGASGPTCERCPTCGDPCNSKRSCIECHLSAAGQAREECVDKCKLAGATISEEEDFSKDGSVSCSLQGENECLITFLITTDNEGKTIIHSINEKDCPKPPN

Compound	pIC50 (αvβ6)	pIC50 (αvβ1)
O=C(NC[C@@H](C(=O)O)c1ccc2c(c1)CCCC2)[C@@H]1CCCN(CCCc2ccc3c(n2)NCCC3)C1 [Compound 248-B, 3-((R)-1-(3-(5,6,7,8-tetrahydro-1,8-naphthyridin-2-yl)propyl)piperidine-3-carboxamido)-2-(5,6,7,8-tetrahydronaphthalen-2-yl)propanoic acid]	> 7.00	> 7.00
O=C(NC[C@@H](C(=O)O)c1cccc(C(F)(F)F)c1)[C@@H]1CCCN(CCCc2ccc3c(n2)NCCC3)C1 [Compound 252-A, 3-((R)-1-(3-(5,6,7,8-tetrahydro-1,8-naphthyridin-2-yl)propyl)piperidine-3-carboxamido)-2-(3-(trifluoromethyl)phenyl)propanoic acid]	6.00 to 7.00	> 7.00
O=C(NC[C@H](C(=O)O)c1cccc2c1CCCC2)[C@@H]1CCCN(CCCc2ccc3c(n2)NCCC3)C1 [Compound 253-A, 3-((R)-1-(3-(5,6,7,8-tetrahydro-1,8-naphthyridin-2-yl)propyl)piperidine-3-carboxamido)-2-(5,6,7,8-tetrahydronaphthalen-1-yl)propanoic acid]	> 7.00	> 7.00
O=C(NC[C@@H](C(=O)O)c1cccc2c1CCCC2)[C@@H]1CCCN(CCCc2ccc3c(n2)NCCC3)C1 [Compound 253-B, 3-((R)-1-(3-(5,6,7,8-tetrahydro-1,8-naphthyridin-2-yl)propyl)piperidine-3-carboxamido)-2-(5,6,7,8-tetrahydronaphthalen-1-yl)propanoic acid]	< 6.00	6.00 to 7.00
O=C(NC[C@H](C(=O)O)c1ccc2c(c1)CCC2)[C@@H]1CCCN(CCCc2ccc3c(n2)NCCC3)C1 [Compound 254-A, 2-(2,3-dihydro-1H-inden-5-yl)-3-((R)-1-(3-(5,6,7,8-tetrahydro-1,8-naphthyridin-2-yl)propyl)piperidine-3-carboxamido)propanoic acid]	6.00 to 7.00	> 7.00
O=C(NC[C@@H](C(=O)O)c1ccc2c(c1)CCC2)[C@@H]1CCCN(CCCc2ccc3c(n2)NCCC3)C1 [Compound 254-B, 2-(2,3-dihydro-1H-inden-5-yl)-3-((R)-1-(3-(5,6,7,8-tetrahydro-1,8-naphthyridin-2-yl)propyl)piperidine-3-carboxamido)propanoic acid]	> 7.00	> 7.00
Cc1cc(C)n(-c2cccc([C@H](CNC(=O)[C@@H]3CCCN(CCCc4ccc5c(n4)NCCC5)C3)C(=O)O)c2)n1 [Compound 257-A, 2-(3-(3,5-dimethyl-1H-pyrazol-1-yl)phenyl)-3-((R)-1-(3-(5,6,7,8-tetrahydro-1,8-naphthyridin-2-yl)propyl)piperidine-3-carboxamido)propanoic acid]	> 7.00	> 7.00
Cc1cc(C)n(-c2cccc([C@@H](CNC(=O)[C@@H]3CCCN(CCCc4ccc5c(n4)NCCC5)C3)C(=O)O)c2)n1 [Compound 257-B, 2-(3-(3,5-dimethyl-1H-pyrazol-1-yl)phenyl)-3-((R)-1-(3-(5,6,7,8-tetrahydro-1,8-naphthyridin-2-yl)propyl)piperidine-3-carboxamido)propanoic acid]	> 7.00	> 7.00
O=C(NC[C@H](C(=O)O)c1ccc(C2CC2)cc1)[C@@H]1CCCN(CCCc2ccc3c(n2)NCCC3)C1 [Compound 259-A, 2-(4-cyclopropylphenyl)-3-((R)-1-(3-(5,6,7,8-tetrahydro-1,8-naphthyridin-2-yl)propyl)piperidine-3-carboxamido)propanoic acid]	> 7.00	> 7.00
O=C(NC[C@H](C(=O)O)c1ccccc1C1CC1)[C@@H]1CCCN(CCCc2ccc3c(n2)NCCC3)C1 [Compound 260-A, 2-(2-cyclopropylphenyl)-3-((R)-1-(3-(5,6,7,8-tetrahydro-1,8-naphthyridin-2-yl)propyl)piperidine-3-carboxamido)propanoic acid]	> 7.00	> 7.00
O=C(NC[C@@H](C(=O)O)c1ccccc1C1CC1)[C@@H]1CCCN(CCCc2ccc3c(n2)NCCC3)C1 [Compound 260-B, 2-(2-cyclopropylphenyl)-3-((R)-1-(3-(5,6,7,8-tetrahydro-1,8-naphthyridin-2-yl)propyl)piperidine-3-carboxamido)propanoic acid]	< 6.00	6.00 to 7.00
O=C(NC[C@H](Nc1cccc2ccccc12)C(=O)O)[C@@H]1CCCN(CCCc2ccc3c(n2)NCCC3)C1 [Compound 261, (S)-2-(naphthalen-1-ylamino)-3-((R)-1-(3-(5,6,7,8-tetrahydro-1,8-naphthyridin-2-yl)propyl)piperdine-3-carboxamido)propanoic acid]	> 7.00	> 7.00
O=C(N[C@@H](CNC(=O)[C@@H]1CCCN(CCCc2ccc3c(n2)NCCC3)C1)C(=O)O)C1CCCCC1 [Compound 262, (S)-2-(cyclohexanecarboxamido)-3-((R)-1-(3-(5,6,7,8-tetrahydro-1,8-naphthyridin-2-yl)propyl)piperidine-3-carboxamido)propanoic acid hydrochloride]	> 7.00	> 7.00
CC1(C(=O)N[C@@H](CNC(=O)[C@@H]2CCCN(CCCc3ccc4c(n3)NCCC4)C2)C(=O)O)CCCCC1 [Compound 263, (S)-2-(1-methylcyclohexane-1-carboxamido)-3-((R)-1-(3-(5,6,7,8-tetrahydro-1,8-naphthyridin-2-yl)propyl)piperidine-3-carboxamido)propanoic acid hydrochloride]	> 7.00	> 7.00

Next, values leading:

pIC50 (αvβ6)	pIC50 (αvβ1)	Compound
> 7.00	> 7.00	O=C(NC[C@H](C(=O)O)c1ccc2ccccc2c1)[C@@H]1CCCN(CCCc2ccc3c(n2)NCCC3)C1 [Compound 249-A, 2-(naphthalen-2-yl)-3-((R)-1-(3-(5,6,7,8-tetrahydro-1,8-naphthyridin-2-yl)propyl)piperidine-3-carboxamido)propanoic acid]
> 7.00	> 7.00	O=C(NC[C@@H](C(=O)O)c1ccc2ccccc2c1)[C@@H]1CCCN(CCCc2ccc3c(n2)NCCC3)C1 [Compound 249-B, 2-(naphthalen-2-yl)-3-((R)-1-(3-(5,6,7,8-tetrahydro-1,8-naphthyridin-2-yl)propyl)piperidine-3-carboxamido)propanoic acid]
> 7.00	> 7.00	O=C(NC[C@@H](C(=O)O)c1cccc2ccccc12)[C@@H]1CCCN(CCCc2ccc3c(n2)NCCC3)C1 [Compound 250-A, 2-(naphthalen-1-yl)-3-((R)-1-(3-(5,6,7,8-tetrahydro-1,8-naphthyridin-2-yl)propyl)piperidine-3-carboxamido)propanoic acid]
< 6.00	6.00 to 7.00	O=C(NC[C@H](C(=O)O)c1cccc2ccccc12)[C@@H]1CCCN(CCCc2ccc3c(n2)NCCC3)C1 [Compound 250-B, 2-(naphthalen-1-yl)-3-((R)-1-(3-(5,6,7,8-tetrahydro-1,8-naphthyridin-2-yl)propyl)piperidine-3-carboxamido)propanoic acid]
6.00 to 7.00	6.00 to 7.00	O=C(NC[C@@H](C(=O)O)c1cccc(Oc2ccccc2)c1)[C@@H]1CCCN(CCCc2ccc3c(n2)NCCC3)C1 [Compound 251-A]
> 7.00	> 7.00	O=C(NC[C@H](C(=O)O)c1cccc(Oc2ccccc2)c1)[C@@H]1CCCN(CCCc2ccc3c(n2)NCCC3)C1 [Compound 251-B]
> 7.00	< 6.00	O=C(NC[C@H](C(=O)O)c1cccc(C(F)(F)F)c1)[C@@H]1CCCN(CCCc2ccc3c(n2)NCCC3)C1 [Compound 252-B, 3-((R)-1-(3-(5,6,7,8-tetrahydro-1,8-naphthyridin-2-yl)propyl)piperidine-3-carboxamido)-2-(3-(trifluoromethyl)phenyl)propanoic acid]
> 7.00	> 7.00	O=C(O)C(CNC(=O)[C@@H]1CCCN(CCCc2ccc3c(n2)NCCC3)C1)c1cccc(Br)c1 (stereo partly drawn) [Compound 255, 2-(3-bromophenyl)-3-((R)-1-(3-(5,6,7,8-tetrahydro-1,8-naphthyridin-2-yl)propyl)piperidine-3-carboxamido)propanoic acid hydrochloride]
6.00 to 7.00	6.00 to 7.00	O=C(NC[C@@H](C(=O)O)c1cccc(-c2ccccc2)c1)[C@@H]1CCCN(CCCc2ccc3c(n2)NCCC3)C1 [Compound 256-A, 2-([1,1′-biphenyl]-3-yl)-3-((R)-1-(3-(5,6,7,8-tetrahydro-1,8-naphthyridin-2-yl)propyl)piperidine-3-carboxamido)propanoic acid]
> 7.00	> 7.00	O=C(NC[C@H](C(=O)O)c1cccc(-c2ccccc2)c1)[C@@H]1CCCN(CCCc2ccc3c(n2)NCCC3)C1 [Compound 256-B, 2-([1,1′-biphenyl]-3-yl)-3-((R)-1-(3-(5,6,7,8-tetrahydro-1,8-naphthyridin-2-yl)propyl)piperidine-3-carboxamido)propanoic acid]
6.00 to 7.00	6.00 to 7.00	O=C(NC[C@H](C(=O)O)c1cccc(C2CC2)c1)[C@@H]1CCCN(CCCc2ccc3c(n2)NCCC3)C1 [Compound 258-A, 2-(3-cyclopropylphenyl)-3-((R)-1-(3-(5,6,7,8-tetrahydro-1,8-naphthyridin-2-yl)propyl)piperidine-3-carboxamido)propanoic acid]
> 7.00	> 7.00	O=C(NC[C@@H](C(=O)O)c1cccc(C2CC2)c1)[C@@H]1CCCN(CCCc2ccc3c(n2)NCCC3)C1 [Compound 258-B, 2-(3-cyclopropylphenyl)-3-((R)-1-(3-(5,6,7,8-tetrahydro-1,8-naphthyridin-2-yl)propyl)piperidine-3-carboxamido)propanoic acid]
